What was measured:
[1] = tested on: NF-kB transcriptional activity in HEK-293-NF-kB-Luc cell line overexpressing MALT1; test: NF-kB reporter assay (luciferase, MALT1 stably overexpressed); format: cell-based; details: Homo sapiens, 24 h, HEK-293-NF-kB-Luc cells stably overexpressing MALT1, 24 h treatment, Bright Glo luminescence; read-out: NF-kB inhibition IC50
How it was run: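 Inhibition of NF-κB activity was expressed relative to 0.1% DMSO wells, from luminescence after 10 min Bright Glo at ambient temperature. Compounds had been applied for 24 h to adhered MALT1-overexpressing HEK-293 NF-κB luciferase reporter cells.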

OCI-Ly-10 cells = test: Anticancer assay (14 days), cell viability by CCK-8; format: cell-based; details: Homo sapiens, OCI-Ly10, 336 h, 14 days treatment, fresh treatment every 5th day, CCK-8 viability, read-out: Ly-10 (14d) inhibition IC50
Protocol: OCI-Ly-10 cells (UHN, Canada) seeded in culture media (IMDM+20% FBS) in 96-well plates were treated with various concentrations of the test compounds. Cells were treated for a period of 14 days (13-15 days depending on the confluency of cells) with fresh treatments every 5th day. After the first treatment, for all subsequent treatments, the cells were centrifuged, the spent media was removed and fresh media containing the test compound was added. Cell viability was assessed using CCK-8 kit (Dojindo Laboratories, China) as per manufacturer's instructions. Plates were read in colorimeter and absorbance was detected. (Detection at 450 nm; Background correction at 650 nm). % inhibition was calculated relative to the samples containing media with 0.1% DMSO alone as per the following formula

full length MALT1 enzyme = target: T1, full length MALT1 enzyme (Homo sapiens, UniProt Q9UDY8); test: MALT1 biochemical assay (fluorescence based, Ac-Leu-Arg-Ser-Arg-AMC cleavage); details: full length MALT1 protein, 2 h pre-incubation at RT, tetrapeptide substrate Ac-Leu-Arg-Ser-Arg-AMC, read-out: Malt 1 inhibition IC50
T1 construct: a fluorescence based assay with full length MALT1 enzyme
T1 sequence (Q9UDY8 1-824): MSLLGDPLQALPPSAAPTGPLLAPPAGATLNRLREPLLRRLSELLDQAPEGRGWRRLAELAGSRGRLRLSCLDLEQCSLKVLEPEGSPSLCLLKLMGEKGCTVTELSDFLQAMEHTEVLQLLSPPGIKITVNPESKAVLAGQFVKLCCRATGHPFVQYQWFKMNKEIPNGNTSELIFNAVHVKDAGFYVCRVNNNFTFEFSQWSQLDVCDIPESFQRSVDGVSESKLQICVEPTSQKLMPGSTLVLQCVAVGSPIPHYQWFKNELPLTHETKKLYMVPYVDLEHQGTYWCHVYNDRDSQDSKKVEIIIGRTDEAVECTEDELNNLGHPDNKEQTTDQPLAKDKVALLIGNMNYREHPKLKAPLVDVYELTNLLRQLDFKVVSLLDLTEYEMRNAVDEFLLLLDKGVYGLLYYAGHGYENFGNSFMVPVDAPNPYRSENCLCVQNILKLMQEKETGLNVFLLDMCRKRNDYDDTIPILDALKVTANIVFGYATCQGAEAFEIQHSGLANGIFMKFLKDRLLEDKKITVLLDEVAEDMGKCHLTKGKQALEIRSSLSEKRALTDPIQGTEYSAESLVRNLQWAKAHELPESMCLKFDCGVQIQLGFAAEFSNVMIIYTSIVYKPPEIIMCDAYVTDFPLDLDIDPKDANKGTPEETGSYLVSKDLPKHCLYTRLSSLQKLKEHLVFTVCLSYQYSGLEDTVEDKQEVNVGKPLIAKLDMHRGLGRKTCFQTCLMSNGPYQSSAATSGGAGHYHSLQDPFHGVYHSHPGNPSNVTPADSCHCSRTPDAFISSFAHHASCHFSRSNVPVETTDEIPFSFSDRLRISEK
How it was run: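 Full-length MALT1 (100-300 ng/well) was pre-incubated with compound for 2 h at RT, then 100 μM Ac-LRSR-AMC was added for 4-12 h. Buffer was 50 mM MES, 150 mM NaCl, 0.1% CHAPS, 1 M ammonium citrate, 10 mM DTT, pH 7, with 0.5% DMSO. IC50 was derived from AMC fluorescence (ex 360/em 460 nm).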

| SMILES | IC50 (OCI-Ly-10 cells) [nM] | IC50 (full length MALT1 enzyme) [nM] | IC50 [1] [nM] |
| --- | --- | --- | --- |
| COCC1CCCN(c2c(NC(=O)Nc3cnc(OC)c(Cl)c3)cnc3sc(C)nc23)C1 (single isomer, unassigned) [Compound 51b, 1-(5-chloro-6-methoxypyridin-3-yl)-3-(7-(3-(methoxymethyl)piperidin-1-yl)-2-methylthiazolo[5,4-b]pyridin-6-yl)urea] | 501 to 1500 | – | – |
| COc1nc(-n2ccnn2)c(Cl)cc1NC(=O)Nc1cnc2sc(C)nc2c1C(C)OC (single isomer, unassigned) [Compound 91b, 1-(5-Chloro-2-methoxy-6-(1H-1,2,3-triazol-1-yl)pyridin-3-yl)-3-(7-(1-methoxyethyl)-2-methylthiazolo[5,4-b]pyridin-6-yl)urea] | 26 to 100 | – | – |
| COCCc1c(NC(=O)Nc2cnc(OC)c(Cl)c2)cnc2sc(C)nc12 [Compound 33, 1-(5-Chloro-6-methoxypyridin-3-yl)-3-(7-(2-methoxyethyl)-2-methylthiazolo[5,4-b]pyridin-6-yl)urea] | 501 to 1500 | – | – |
| Cc1nc2c(N3CCC(C)CC3)c(NC(=O)Nc3cnc(-n4nccn4)c(Cl)c3)cnc2s1 [Compound 37, 1-(5-Chloro-6-(2H-1,2,3-triazol-2-yl)pyridin-3-yl)-3-(2-methyl-7-(4-methylpiperidin-1-yl)thiazolo[5,4-b]pyridin-6-yl)urea] | – | 51 to 100 | 101 to 500 |
| Cc1nc2c(N3CCCCC3)c(NC(=O)Nc3cnc(-n4nccn4)c(Cl)c3)cnc2s1 [Compound 40, 1-(5-Chloro-6-(2H-1,2,3-triazol-2-yl)pyridin-3-yl)-3-(2-methyl-7-(piperidin-1-yl)thiazolo[5,4-b]pyridin-6-yl)urea] | – | 1 to 50 | 1 to 100 |
| COCC(CN(C)c1c(NC(=O)Nc2cnc(-n3nccn3)c(Cl)c2)cnc2sc(C)nc12)OC (centres unmarked) [Compound 43, 1-(5-Chloro-6-(2H-1,2,3-triazol-2-yl)pyridin-3-yl)-3-(7-((2,3-dimethoxypropyl)(methyl)amino)-2-methylthiazolo[5,4-b]pyridin-6-yl)urea] | 26 to 100 | – | – |
| COCCN(C)c1c(NC(=O)Nc2cnc(OC)c(Cl)c2)cnc2sc(C)nc12 [Compound 45, 1-(5-Chloro-6-methoxypyridin-3-yl)-3-(7-((2-methoxyethyl)(methyl)amino)-2-methylthiazolo[5,4-b]pyridin-6-yl)urea] | 501 to 1500 | – | – |
| Cc1nc2c(C3CC3)c(NC(=O)Nc3cnc(-n4ccnn4)c(Cl)c3)cnc2s1 [Compound 61, 1-(5-Chloro-6-(1H-1,2,3-triazol-1-yl)pyridin-3-yl)-3-(7-cyclopropyl-2-methylthiazolo[5,4-b]pyridin-6-yl)urea] | 501 to 1500 | – | – |
| Cc1nc2c(C3CC3)c(NC(=O)Nc3cnc(OCCC4CCN(C)CC4)c(Cl)c3)cnc2s1 [Compound 73, 1-(5-Chloro-6-(2-(1-methylpiperidin-4-yl)ethoxy)pyridin-3-yl)-3-(7-cyclopropyl-2-methylthiazolo[5,4-b]pyridin-6-yl)urea] | – | 51 to 100 | 101 to 500 |
| Cc1nc2c(C(C3CC3)N(C)C)c(NC(=O)Nc3cnc(-n4nccn4)c(C(F)(F)F)c3)cnc2s1 (centres unmarked) [Compound 76a, 1-(6-(2H-1,2,3-Triazol-2-yl)-5-(trifluoromethyl)pyridin-3-yl)-3-(7-(cyclopropyl(dimethylamino)methyl)-2-methylthiazolo[5,4-b]pyridin-6-yl)urea] | 101 to 250 | – | – |
| COC(C)(C)c1c(NC(=O)Nc2ccc(-n3nccn3)c(Cl)c2)cnc2sc(C)nc12 [Compound 98, 1-(3-Chloro-4-(2H-1,2,3-triazol-2-yl)phenyl)-3-(7-(2-methoxypropan-2-yl)-2-methylthiazolo[5,4-b]pyridin-6-yl)urea] | – | 1 to 50 | 1 to 100 |

Further lines, with some results ahead:

| IC50 (OCI-Ly-10 cells) [nM] | IC50 (full length MALT1 enzyme) [nM] | SMILES | IC50 [1] [nM] |
| --- | --- | --- | --- |
| 101 to 250 | – | CCOC(C)c1c(NC(=O)Nc2cnc(-n3nccn3)c(Cl)c2)cnc2sc(C)nc12 (racemic) [Compound 164, 1-(5-Chloro-6-(2H-1,2,3-triazol-2-yl)pyridin-3-yl)-3-(7-(1-ethoxyethyl)-2-methylthiazolo[5,4-b]pyridin-6-yl)urea] | 1 to 100 |
| 101 to 250 | – | COC(C)c1c(NC(=O)Nc2ccc(-n3nccn3)c(C#N)c2)cnc2sc(C)nc12 (single isomer, unassigned) [Compound 208b, (S) or (R)-1-(3-Cyano-4-(2H-1,2,3-triazol-2-yl)phenyl)-3-(7-(1-methoxyethyl)-2-methylthiazolo[5,4-b]pyridin-6-yl)urea] | – |
| – | 1 to 50 | COCC1(c2c(NC(=O)Nc3cnc(-n4nccn4)c(C(F)(F)F)c3)cnc3sc(C)nc23)CC1 [Compound 102, 1-(6-(2H-1,2,3-Triazol-2-yl)-5-(trifluoromethyl)pyridin-3-yl)-3-(7-(1-(methoxymethyl)cyclopropyl)-2-methylthiazolo[5,4-b]pyridin-6-yl)urea] | 1 to 100 |
| – | 51 to 100 | COc1ncc(NC(=O)Nc2cnc3sc(C)nc3c2N(C)C)cc1Cl [Compound 110, 1-(5-Chloro-6-methoxypyridin-3-yl)-3-(7-(dimethylamino)-2-methylthiazolo[5,4-b]pyridin-6-yl)urea] | 501 to 1500 |
| – | 1 to 50 | Cc1nc2c(C3CC3)c(NC(=O)Nc3ccc(-n4ccnn4)c(Cl)c3)cnc2s1 [Compound 169, 1-(3-Chloro-4-(1H-1,2,3-triazol-1-yl)phenyl)-3-(7-cyclopropyl-2-methylthiazolo[5,4-b]pyridin-6-yl)urea] | 101 to 500 |
| – | 1 to 50 | Cc1nc2c(C3CC3)c(NC(=O)Nc3cc(Cl)c(-n4ccnn4)c(Cl)c3)cnc2s1 [Compound 170, 1-(7-Cyclopropyl-2-methylthiazolo[5,4-b]pyridin-6-yl)-3-(3,5-dichloro-4-(1H-1,2,3-triazol-1-yl)phenyl)urea] | 101 to 500 |
| – | 51 to 100 | Cc1ncn(-c2ccc(NC(=O)Nc3cnc4sc(C)nc4c3C3CC3)cc2C#N)n1 [Compound 171, 1-(3-Cyano-4-(3-methyl-1H-1,2,4-triazol-1-yl)phenyl)-3-(7-eyelopropyl-2-methylthiazolo[5,4-b]pyridin-6-yl)urea] | 101 to 500 |
| – | 51 to 100 | Cc1nc2c(C3CC3)c(NC(=O)Nc3ccc(-n4ncnc4C)c(C#N)c3)cnc2s1 [Compound 172, 1-(3-Cyano-4-(5-methyl-1H-1,2,4-triazol-1-yl)phenyl)-3-(7-eyelopropyl-2-methylthiazolo[5,4-b]pyridin-6-yl)urea] | 501 to 1500 |
| – | 1 to 50 | COCc1c(NC(=O)Nc2cnc(-n3nccn3)c(Cl)c2)cnc2sc(C)nc12 [Compound 176, 1-(5-Chloro-6-(2H-1,2,3-triazol-2-yl)pyridin-3-yl)-3-(7-(metdoxymethyl)-2-methylthiazolo[5,4-b]pyridin-6-yl)urea] | 101 to 500 |
| – | 1 to 50 | Cc1nc2c(C3(C)CC3)c(NC(=O)Nc3ccc(-n4nccn4)c(Cl)c3)cnc2s1 [Compound 179, 1-(3-Chloro-4-(2H-1,2,3-triazol-2-yl)phenyl)-3-(2-methyl-7-(1-methylcyclopropyl)thiazolo[5,4-b]pyridin-6-yl)urea] | 1 to 100 |
| – | 1 to 50 | Cc1nc2c(C(C)C)c(NC(=O)Nc3cnc(-n4nccn4)c(C(F)(F)F)c3)cnc2s1 [Compound 191, 1-(6-(2H-1,2,3-triazol-2-yl)-5-(trifluoromethyl)pyridin-3-yl)-3-(7-isopropyl-2-methylthiazolo[5,4-b]pyridin-6-yl)urea] | 1 to 100 |
| – | 51 to 100 | Cc1nc2c(C3CC3)c(NC(=O)Nc3cc(Cl)cnc3OCCN(C)C)cnc2s1 [Compound 195, 1-(5-Chloro-2-(2-(dimethylamino)ethoxy)pyridin-3-yl)-3-(7-cyclopropyl-2-methylthiazolo[5,4-b]pyridin-6-yl)urea] | 1 to 100 |
